This note sets out measurements from patent publication US9320734B2, “Small molecule inhibitors of the pleckstrin homology domain and methods for using same” (Board of Regents, The University of Texas System, priority 2008, dated 2016).

The term IC50 denotes the concentration that inhibits the measured activity by half. A word on the inhibition: it is the drop in the measured response relative to a control, in per cent. Broadly, the Solubility is the concentration that dissolves in the medium under given conditions. Lower therefore signals a poorly soluble substance.

For series [1], the system named is Panc-1 and MiaPaCa-2 pancreatic cancer cells. Kind of series: Cell viability assay (Table 3). As to conditions: for cytotoxicity: either cell line tested (Panc-1, MiaPaCa-2); for Cell viability (IC50): viability assay, cell line not given, N/I = no inhibition at the highest concentration tested.
Series [2] relates to phospho-Ser473-AKT in Panc-1 cells. Kind of series: Cellular AKT inhibition, Western blot phospho-Ser473-AKT, Panc-1 cells. A general note: A western blot detects proteins with antibodies after separation by electrophoresis.
Series [3] concerns Panc-1 pancreatic cell line. The series is described as follows: Apoptosis, morphological assay, Panc-1 cells. Format: cell-based, human. The note with it: Panc-1, morphological assay. The text has this:
(§1) AKT inhibition leads to cellular apoptosis.

Series [4] has as its system MiaPaca-2 pancreatic cell line. The series is described as follows: Apoptosis, morphological assay, MiaPaCa-2 cells. Format: cell-based, human. As to conditions: MiaPaca-2, morphological assay.
From the text: as §1

Series [5] deals with phospho-Ser473-AKT in MiaPaCa-2 cells. Kind of series: Cellular AKT inhibition, Western blot phospho-Ser473-AKT, MiaPaCa-2 cells. As to conditions: read-out: pAKT inhibition (IC50).
The test system of series [6] is phospho-Ser473-AKT in BxPC-3. The series is described as follows: Cellular AKT inhibition, Western blot phospho-Ser473-AKT, BxPC-3 cells. Format: cell-based, human. The note with it: for inhibition at 10 µM: Homo sapiens.
Series [7] has as its system phospho-Ser473-AKT in HT-29 cells. The series is described as follows: Cellular AKT inhibition, Western blot phospho-Ser473-AKT, HT-29 cells. Format: cell-based. The note with it: human HT-29 colon cancer cells. On the procedure: as §1
(§2) AKT activity was measured by Western blotting using anti-[…] AKT antibody. Downstream targets of AKT were detected also by Western blotting using specific anti-phospho antibodies and anti-actin was used as a loading control.

In series [8] the test system is phospho-Ser473 AKT in NIH3T3 cells. Kind of series: Cellular AKT inhibition, phospho-Ser473 AKT, NIH3T3 cells. Format: cell-based. As to conditions: mouse NIH3T3, phospho-Ser473 AKT. As to the method: as §2
The test system of series [9] is HT-29 cells. The series is described as follows: Cell survival / cytotoxicity, MTT assay, HT-29 cells. Format: cell-based, human. On the technique in general: Formazan colour is commonly taken as a measure of viable cells.
The subject of series [10] is HT-29 cells. Kind of series: Metabolic stability under cell culture conditions (incubation with HT-29 cells). Format: in vitro ADME, human. The note with it: incubating with HT-29 cells at maximum DMEM concentration at 37° C. An excerpt:
Compound 6 was too insoluble to obtain data.

A further series is described as follows: Solubility. In kind it is physicochemical.
Where [11] appears, read: BXPC-3, read-out: % pAKT Inhibition, At 10 μM.
[12] abbreviates: BxPC-3, Western blots phospho-Ser473-AKT, 10 μM, NI = not inhibitory, read-out: % pAKT Inhibition, At 10 μM.
The mark [13] stands for this setting: MTT assay, read-out: Cell survival (IC50).
Setting [14] is: Western blotting, phospho-Ser473-AKT, MiaPaCa-2 cells, N/I = no inhibition at the highest concentration tested.

The structures appear in SMILES notation. Converted amounts (≈) assume the structure as drawn. Like-named read-outs stand apart in the source and are kept apart here.

On to `Nc1ccc(S(=O)(=O)Nc2nncs2)cc1` [Compound 100, 4-Amino-N-(1,3,4-thiadiazol-2-yl)benzenesulfonamide], for which, in series [1], the cytotoxicity entry is “did not exhibit cytotoxicity” and the “Cell viability (IC50)” value is recorded as “N/I”.
For the compound `CCCCCCCCCC(=O)Nc1ccc(S(=O)(=O)Nc2nncs2)cc1` [Compound 101, N-(4-(N-1,3,4-Thiadiazol-2-ylsulfamoyl)phenyl)decanamide], the IC50 in series [2] (Homo sapiens, PANC-1, read-out: pAKT inhibition (IC50)) turned out to be 10 µM.
For the compound `COCCOCCOCC(=O)Nc1ccc(S(=O)(=O)Nc2nncs2)cc1` [Compound 103], the “Apoptosis at 20 μmol/L” value in series [3] is 11.4 ± 0.5/ %; in series [4] it was 18.7 ± 3.1%. Moreover, the IC50 was above 50 µM in series [2] (read-out: pAKT inhibition (IC50), Panc-1, Western blots phospho-Ser473-AKT) and above 50 µM in series [5] (MiaPaca-2, Western blots phospho-Ser473-AKT).
Regarding `Cc1nnc(NS(=O)(=O)c2ccc(N)cc2)s1` [Compound 105, 4-Amino-N-(5-methyl-1,3,4-thiadiazol-2-yl)benzenesulfonamide], the inhibition at 10 µM in series [6] (setting [11]) was 11%.
For `CCCCCCCCCC(=O)Nc1ccc(S(=O)(=O)Nc2nnc(C)s2)cc1` [Compound 107, N-(4-(N-(5-Methyl-1,3,4-thiadiazol-2-yl)sulfamoyl)phenyl)decanamide], the inhibition at 10 µM in series [6] (setting [12]) was 11%.
For `CCCCCCCCCCCCc1ccc(S(=O)(=O)Nc2nnc(C)s2)cc1` [Compound 108, 4-Dodecyl-N-(5-methyl-1,3,4-thiadiazol-2-yl)benzenesulfonamide], the inhibition at 10 µM in series [6] (setting [12]) stood at 64%.
With `CCc1nnc(NS(=O)(=O)c2ccc(N)cc2)s1` [Compound 109, 4-Amino-N-(5-ethyl-1,3,4-thiadiazol-2-yl)benzenesulfonamide], in series [6] (setting [12]), the inhibition at 10 µM is 16%.
Take `CCc1nnc(NS(=O)(=O)c2ccc(NC(C)=O)cc2)s1` [Compound 110, N-(4-(N-(5-Ethyl-1,3,4-thiadizol-2-yl)sulfamoyl)phenyl)acetamide]: the “% pAKT Inhibition, At 10 μM” value in [6] (BxPC-3, Western blots phospho-Ser473-AKT, 10 μM, NI = not inhibitory) was 45%.
For the compound `CCCCCCCCCC(=O)Nc1ccc(S(=O)(=O)Nc2nnc(CC)s2)cc1` [Compound 111, N-(4-(N-(5-Ethyl-1,3,4-thiadiazol-2-yl)sulfamoyl)phenyl)decanamide], the inhibition at 10 µM in [6] (setting [12]) came out at 22%.
On to `CC(C)(C)c1nnc(NS(=O)(=O)c2ccc(N)cc2)s1` [Compound 113, 4-Amino-N-(5-tert-butyl-1,3,4-thiadiazol-2-yl)benzenesulfonamide], for which the inhibition at 10 µM in [6] (setting [12]) is 13%.
On to `CC(=O)Nc1ccc(S(=O)(=O)Nc2nnc(C(C)(C)C)s2)cc1` [Compound 114, N-(4-(N-(5-tert-Butyl-1,3,4-thiadiazol-2-yl)sulfamoyl)phenyl)acetamide], for which the inhibition at 10 µM in [6] (setting [12]) stood at 20%.
Turning to `CCCCCCCCCC(=O)Nc1ccc(S(=O)(=O)Nc2nnc(C(C)(C)C)s2)cc1` [Compound 115, N-(4-(N-(5-tert-Butyl-1,3,4-thiadiazol-2-yl)sulfamoyl)phenyl)decanamide], the inhibition at 10 µM in series [6] (setting [12]) came to 16%.
For the compound `CCCCCCCCCCCCc1ccc(S(=O)(=O)Nc2nnc(C(C)(C)C)s2)cc1` [Compound 116, N-(5-tert-Butyl-1,3,4-thiadiazol-2-yl)-4-dodecylbenzenesulfonamide], the inhibition at 10 µM in [6] (setting [12]) was found to be 36%.
For the compound `Nc1ccc(S(=O)(=O)Nc2nnc(CC(=O)O)s2)cc1` [Compound 117, 2-(5-(4-Aminophenylsulfonamido)-1,3,4-thiadiazol-2-yl)acetic Acid], the inhibition at 10 µM in [6] (setting [12]) was found to be 23%.
`CC(=O)Nc1ccc(S(=O)(=O)Nc2nnc(CC(=O)O)s2)cc1` [Compound 118, 2-(5-(4-Acetamidophenylsulfonamido)-1,3,4-thiadiazol-2-yl)acetic Acid]: the inhibition at 10 µM in series [6] (setting [12]) amounted to 19%.
Take `CCOC(=O)Cc1nnc(NS(=O)(=O)c2ccc(NC(C)=O)cc2)s1` [Compound 118E, Ethyl 2-(5-(4-Acetamidophenylsulfonamido)-1,3,4-thiadiazol-2-yl)acetate]: the inhibition at 10 µM in series [6] (setting [12]) worked out at 55%.
The same measure, in the same setting: with `CCCCCCCCCC(=O)Nc1ccc(S(=O)(=O)Nc2nnc(CC(=O)O)s2)cc1` [Compound 119, 2-(5-(4-Decanamidophenylsulfonamido)-1,3,4-thiadiazol-2-yl)acetic Acid] the figure was 42%; with `CCCCCCCCCC(=O)Nc1ccc(S(=O)(=O)Nc2nnc(C(=O)OCC)s2)cc1` [Compound 123E, Ethyl 5-(4-Decanamidophenylsulfonamido)-1,3,4-thiadiazole-2-carboxylate], 10%; with `Nc1ccc(S(=O)(=O)Nc2nnc(CO)s2)cc1` [Compound 125, 4-Amino-N-(5-(hydroxymethyl)-1,3,4-thiadiazol-2-yl)benzenesulfonamide], 10%.
Regarding `CCCCCCCCCC(=O)Nc1ccc(S(=O)(=O)Nc2nnc(CO)s2)cc1` [Compound 127, N-(4-(N-(5-(hydroxymethyl)-1,3,4-thiadiazol-2-yl)sulfamoyl)phenyl)decanamide], the inhibition at 10 µM in series [6] (setting [12]) came to 11%.
`Nc1ccc(S(=O)(=O)Nc2nnc(S(N)(=O)=O)s2)cc1` [Compound 131, 5-(4-Aminophenylsulfonamido)-1,3,4-thiadiazole-2-sulfonamide]: in series [6] (setting [11]), the inhibition at 10 µM was found to be 18%.
On to `CCCCCCCCCCCCc1ccc(S(=O)(=O)Nc2nnc(CCCCCN(C)c3ccc([N+](=O)[O-])c4nonc34)s2)cc1` [Compound 137, 4-Dodecyl-N-(5-(5-(methyl(7-nitrobenzo[c][1,2,5]oxadiazol-4-yl)amino)pentyl)-1,3,4-thiadiazol-2-yl)benzenesulfonamide], for which the AKT phosphorylation result in [6] (BxPC-3 cells, compared with 104) is reported as “inhibited AKT phosphorylation in a fashion similar to 104”.
Regarding `CCCCCCCCc1ccc(S(=O)(=O)Nc2nncs2)cc1` [Compound 153, 4-Octyl-N-(1,3,4-thiadiazol-2-yl)benzenesulfonamide], the inhibition at 10 µM in series [6] (setting [12]) is 10%.
With `CCCCCCCCCCCCCCc1ccc(S(=O)(=O)Nc2nncs2)cc1` [Compound 156, 4-Tetradecyl-N-(1,3,4-thiadiazol-2-yl)benzenesulfonamide], the inhibition at 10 µM in [6] (setting [12]) is 70%.
`CCCCCCCCCCCCCCCCc1ccc(S(=O)(=O)Nc2nncs2)cc1` [Compound 157, 4-Hexadecyl-N-(1,3,4-thiadiazol-2-yl)benzenesulfonamide]: the inhibition at 10 µM in series [6] (setting [12]) is 50%.
Turning to `CC1=NN(C(=O)c2ccccc2)C(=O)C1/N=N/c1ccc(S(=O)(=O)Nc2ncccn2)cc1` (stereo not drawn) [Compound 331], the IC50 turned out to be 20 µM in [7]; 11 µM in series [8]; 14 µM with HT-29 cells [9] (HT-29 cells, NI = not inhibitory, read-out: Cytotoxicity (IC50 μM)). The Metabolic half life in the series with HT-29 cells [10] was found to be 1.03 h. Moreover, in “Solubility”, the Solubility came to 28.3 µM (≈ 13.1 µg/mL).
Take `CC1=NN(C(=O)c2ccc(Cl)cc2)C(O)C1/N=N/c1ccc(S(=O)(=O)Nc2ncccn2)cc1` (stereo not drawn) [Compound 335]: the IC50 in [7] was found to be 5 µM; in series [8], 3 µM. The compound also showed a Solubility in “Solubility” below 0.1 µM.
Turning to `NS(=O)(=O)c1nnc(NS(=O)(=O)c2cccc3cccnc23)s1` [Compound 345], the 50% inhibitory concentration (IC50) in the series on HT-29 cells [9] (setting [13]) was above 100 µM.
Still for that read-out and setting: the result for `CC1=NN(C(=O)c2ccc(Cl)cc2)C(=O)C1/N=N/c1ccc(S(=O)(=O)Nc2nnc(C)s2)cc1` (stereo not drawn) [Compound 389] reads above 100 µM; that for `COc1cc(NS(=O)(=O)c2ccc(NS(=O)(=O)c3c(C)noc3C)cc2)nc(OC)n1` [Compound 415], 3.1 µM.
With `O=C(Nc1ccccc1)c1ccccc1NC(=O)c1ccccc1C(=O)O` [Compound 439], in series [1], the “Cell viability (IC50)” value is reported as “N/I”. Further, in series [5] (setting [14]), the IC50 was determined as 50 µM.
The like results for `CCOc1ccccc1C(=O)Nc1ccccc1C(=O)O` [Compound 441] were, in that order, “N/I” and 25 µM.
As to `COc1cc(NS(=O)(=O)c2ccc(Nc3ccco3)cc2)nc(OC)n1` [Compound 444], in series [1], the “Cell viability (IC50)” value is given as “N/I”. Further, the IC50 in series [5] (setting [14]) turned out to be 50 µM.
For `COc1cc(NS(=O)(=O)c2ccc(NC(=O)c3ccco3)cc2)nc(OC)n1` [Compound 445], the “Cell viability (IC50)” value in series [1] is on record as “N/I”. The IC50 in series [5] (setting [14]) was found to be 50 µM.
Take `COc1cc(NS(=O)(=O)c2ccc(NC(C)=O)cc2)nc(OC)n1` [Compound 450]: the “Cell viability (IC50)” value in series [1] is listed as “N/I”. In series [5] (setting [14]), the IC50 was found to be 50 µM.
Regarding `Cc1nnc(NS(=O)(=O)c2ccc(NS(=O)(=O)c3ccc4ccccc4c3)cc2)s1` [Compound 455], in series [1], the cytotoxicity entry is given as “did not exhibit cytotoxicity” and the “Cell viability (IC50)” value is reported as “N/I”.
In the case of `Nc1ccc(S(=O)(=O)Nc2ccc(S(=O)(=O)Nc3nnc(S(N)(=O)=O)s3)cc2)cc1` [Compound 456], the “Cell viability (IC50)” value in series [1] is given as “N/I”. In series [5] (setting [14]), the IC50 is 50 µM.
